In US10781203B2, “Nontoxic compounds for the treatment and prevention of herpesvirus infections” (The Penn State Research Foundation, priority 2016, dated 2020):

What was measured:
[1] = test system: HCMV-infected cells; assay: Western blot analysis of HCMV-infected cell lysates; assay type: cell-based, human; conditions: MOI=3, 10 μM
Procedure: Total cell lysates were prepared from uninfected or HCMV-infected cells (MOI=3) at the indicated time points by harvesting lystates in radioimmunoprecipitation assay buffer (1% NP-40, 1% sodium deoxycholate, 0.1% sodium dodecyl sulfate [SDS], 0.15 M NaCl, 10 mM sodium phosphate [pH 7.2], 2 mM EDTA, 50 mM NaF, 1 mM phenylmethylsulfonyl fluoride, […], 0.2 mM Na3VO4, 1 μg/ml leupeptin). After centrifugation, the supernatant was collected and stored at −80° C. The protein was quantified by a Bradford assay (Bio-Rad) and samples were analyzed by SDS-PAGE gel electrophoresis and immunoblotting on nitrocellulose or PVDF membrane blocked with 5% milk or 5% BSA in tris-buffered saline (0.1% tween). Antibody dilutions were in accordance with manufacturer's instructions.

[2] = test system: HCMV-infected ARPE-19 cells (TB40); assay: Spread of HCMV TB40-mCherry in ARPE-19 cells (viral foci area); assay type: cell-based, Human cytomegalovirus (HCMV); conditions: TB40-mCherry MOI=3, 10 μM, three weeks after infection
Procedure: (§1) FIG. 7A is a graph showing viral titers at 15 dpi of fibroblasts infected with various strains of HCMV (MOI=0.05) and treated with DMSO or Retro94 at 2 hpi. Media was changed and fresh Retro94 was added at 6 dpi. Bright field images representing CPE of above infections shown at right. FIG. 7B show HCMV-infected ARPE-19 cells (TB40, MOI=3) at 21 dpi treated with DMSO or Retro94 ([…]). Infected cells detected by monitoring mCherry (red) expressed by TB40 virus. Scale bars: 1 mm. The table below images show number of foci detected, average area and standard error of the mean. P<0.00001. […]
(§2) For MCMV growth curve analysis, samples were titrated on NIH 3T3 cells and titers were calculated using the 50% tissue culture infective dose method. Both HCMV virus stocks and samples for growth curves were titrated by serial dilutions on MRC5 cells and quantified by the immunological detection of immediate-early proteins as previously described (Britt W J. Human cytomegalovirus: propagation, quantification, and storage. Curr Protoc Microbiol. 2010; Chapter 14: Unit 14E.3). The numbers of stained nuclei were acquired on a Nikon Eclipse Ti Inverted microscope and fluorescent nuclei were quantified using the NIS Elements Software. […] The number and size of foci were quantified using NIS Elements software.

[3] = test system: Towne, TB40, Merlin and Toledo strains of HCMV; assay: Viral titers of fibroblasts infected with various strains of HCMV; assay type: cell-based, Human cytomegalovirus (HCMV); conditions: all four strains; MOI=0.05; treated at 2 hpi; 15 dpi
Procedure: as §1, §2

[4] = test system: cytoplasmic viral assembly compartment (cVAC); assay: cVAC morphology / localization of viral and cellular markers by fluorescence microscopy; assay type: cell-based, human
Procedure: Coverslips or chamber slides containing either uninfected or HCMV-infected cells were washed in phosphate-buffered saline (PBS) and fixed in 2% paraformaldehyde for 15 min at room temperature. Cells were blocked in PBS containing 10% human serum, 0.5% Tween-20, and 5% glycine. 0.1% Triton-X 100 was added for permeabilization. Primary and secondary antibodies as specified in the antibody section were diluted in blocking buffer. Nuclei were stained with DAPI prior to mounting with ProLong Diamond Antifade Mountant (ThermoScientific). For live-cell experiments using the pp28-mCherry virus, cells were grown on glass bottom microwell dishes (MatTek Corporation) and nuclei were stained with NucBlue Live Cell Stain ReadyProbes reagent (ThermoScientific). All images were acquired using a C2+ Confocal Microscope System (Nikon). Images were processed using NIS elements software. Images shown are volume renderings of Z-stacks.

[5] = test system: HSV-1; assay: Virus titer analysis of HSV; assay type: cell-based; conditions: MOI=3; harvested at 24 hpi
Description: FIGS. 10A-10B show data to provide support for Retro94 and derivatives being effective against other herpesviruses. […] Samples were harvested at 24 hpi. Representative data shown are from independent replicates. FIG. 10B provides a table showing low nanomolar EC50 values of Retro94F against other herpesviruses.

[6] = test system: cytoplasmic viral assembly compartment (cVAC); assay: Electron microscopy of HCMV-infected cells; assay type: cell-based, human; conditions: MOI=3; 96 hpi; treated at 2 hpi
Procedure: Cells were seeded on 60 mm Permanox tissue culture dishes (Nalge Nunc International). Infections were done at an MOI of 3 for 96 hours. Cells were first washed with PBS 3× followed by fixation for 1 hour at 4° C. in fixation buffer (0.5% [vol/vol] glutaraldehyde, 0.04% [wt/vol] paraformaldehyde, 0.1 M sodium cacodylate). Cells were then processed for EM by the Microscopy Imaging Facility (Pennsylvania State University College of Medicine). Briefly, the fixed samples were washed three times with 0.1 M sodium cacodylate, followed by postfixation in 1% osmium −1.5% potassium ferrocyanide overnight at 4° C. Samples were then washed 3 times in 0.1 M sodium cacodylate, dehydrated with ethanol, and embedded in Epon 812 for staining and sectioning. Images were acquired using a JEOL JEM-1400 Digital Capture transmission electron microscope.

Cc1nc(-c2ccc(C3N(C)c4ccccc4C(=O)N3c3ccccc3)s2)cs1 (stereo not shown) [Retro94, 1-Methyl-2-(5-(2-methylthiazol-4-yl)thiophen-2-yl)-3phenyl-2,3-dihydroquinazolin-4(1H)-one]
STX5 protein level during infection [1]: did not reach the same level as observed in control-treated samples | steady state levels of immediate-early and late viral proteins ([1]; 24-96 hpi): not affected | area of viral centers, DMSO treated versus compound treated cells [2]: more than twice | viral titers lower in the presence of compound [3]: two to three | localization of viral proteins pp28, pp150 and glycoprotein B ([4]; 96 hpi, 10 μM): dispersed throughout the cytoplasm and were no longer present in the cVAC | localization of GS27 and GS28 ([4]; MOI=3, 96 hpi): mostly remained in a perinuclear localization | localization of markers of Golgi (GM130), TGN (p230) and endosomes (EEA1) ([4]; MOI=3, 96 hpi): retained their perinuclear localization | normal cVAC morphology ([4]; MOI=3, 96 hpi): did not form | cVAC as detected by pp28-mCherry ([4]; added at 2 or 24 hpi, imaged at 96 hpi): no area representing a cVAC was detected | pp28 localization (pp28-mCherry) ([4]; added at 48 hpi, imaged at 96 hpi): largely dispersed throughout the cell | perinuclear pp28 regions reminiscent of the cVAC ([4]; added at 72 hpi, imaged at 96 hpi): more prominent | decrease of levels of HSV-1 [5]: ~90% | capsids in perinuclear region (EM) [6]: largely devoid of capsids at all stages of maturation
